{"source": "ChEMBL document CHEMBL1151264", "about": "“Investigation of brominated tryptophan alkaloids from two thorectidae sponges: Thorectandra and Smenospongia” (2005)"}
{"test_system": "Staphylococcus epidermidis", "assay": "Antibacterial activity against Staphylococcus epidermidis ATCC 12228", "assay_type": "functional", "units": {"MIC": "µg/mL"}}
{"smiles": "CN1C(=N)N(C)/C(=C/c2c[nH]c3ccccc23)C1=O", "note": "[APLYSINOPSIN]", "MIC": 25}
{"smiles": "CN1C(=N)N(C)C(O)(Cc2c[nH]c3cc(Br)ccc23)C1=O", "note": "(stereo not given)", "MIC": 12.5}
{"smiles": "COC(=O)Cc1c[nH]c2cc(Br)ccc12", "MIC": 6.25}
{"smiles": "CN[C@H](CC(C)C)C(=O)N[C@H]1C(=O)N[C@@H](CC(N)=O)C(=O)N[C@H]2C(=O)N[C@H]3C(=O)N[C@H](C(=O)N[C@H](C(=O)O)c4cc(O)cc(O)c4-c4cc3ccc4O)[C@H](O)c3ccc(c(Cl)c3)Oc3cc2cc(c3O[C@@H]2O[C@H](CO)[C@@H](O)[C@H](O)[C@H]2O[C@H]2C[C@](C)(N)[C@H](O)[C@H](C)O2)Oc2ccc(cc2Cl)[C@H]1O", "note": "[VANCOMYCIN]", "MIC": 0.625}
{"smiles": "C[N+](C)(C)[C@@H](Cc1c[nH]c2ccc(Br)cc12)C(=O)O", "MIC": 100}
{"smiles": "COC1(Cc2c[nH]c3cc(Br)ccc23)C(=O)N(C)C(=N)N1C", "note": "(stereo not given)", "MIC": 100}
{"smiles": "CN(C)[C@@H](Cc1c[nH]c2ccc(Br)cc12)C(=O)O", "MIC": 25}
{"smiles": "CN1C(=N)N(C)C(Cc2c[nH]c3cc(Br)ccc23)C1=O", "note": "(stereo not given)", "MIC": 25}
{"smiles": "COC(=O)c1c[nH]c2cc(Br)ccc12", "MIC": 50}
{"smiles": "CCOC1(Cc2c[nH]c3cc(Br)ccc23)C(=O)N(C)C(=N)N1C", "note": "(stereo not given)", "MIC": 12.5}
